Where two headings read alike, the source gives them in different places.
What was measured:
[1] = test system: MDA-MB-231 (breast) cancer cells; assay: MTT cytotoxicity assay, MDA-MB-231; settings: read-out: In Vitro Cytotoxicity IC50, MDA-MB-231
Description: (§1) The cell lines were grown in culture bottles and incubated at a CO2 concentration of 5% and 37 °C.
(§2) Cell viability was investigated via the MTT [3-(4,5-dimethylthiazol-2-yl)-2,5-diphenyltetrazolium bromide] assay. This method consists of the capacity of enzymes present in living cells, especially in mitochondria, to reduce MTT to formazan, a purple-colored compound. […] For the assays, 1.5 × 10^4 cells/well were seeded in 96-well flat-bottom cell culture plates (KASVI). The plates were incubated for 24 h; then, different concentrations of the complexes were pipetted, and the plates were treated for an additional 48 h. To complete the treatment, 50 μL of MTT (1 mg/mL in PBS) was added to each well, followed by incubation for 3 h. The formazan crystals that formed were solubilized in isopropanol, and the absorbance was read with a microplate reader (BioTek, Epoch) at 540 nm. Cell viability (IC50) was assessed with GraphPad Prism 8.

[2] = test system: A2780cis (ovarian cisplatin-resistant) cancer cells; assay: MTT cytotoxicity assay, A2780cis; settings: read-out: In Vitro Cytotoxicity IC50, A2780cis
Description: as §1, §2

[3] = test system: A2780 (ovarian) cancer cells; assay: MTT cytotoxicity assay, A2780; settings: read-out: In Vitro Cytotoxicity IC50, A2780
Description: as §1, §2

[4] = MTT cytotoxicity assay, MRC-5; settings: human
Description: as §1, §2

A549 (lung) cancer cells = assay: MTT cytotoxicity assay, A549; settings: read-out: In Vitro Cytotoxicity IC50, A549
Description: as §1, §2

in vitro = settings: human
Description: as §1, §2

[5] = test system: A2780 ovarian cancer cells; assay: Morphological assay (bright field, PI, DAPI/Green Plasma); type: cell-based, human; settings: for DAPI and Green Plasma staining / propidium iodide fluorescence intensity: 48 h, 0.5 × IC50, IC50, 2 × IC50; for cell morphology: up to 48 h, mainly at higher concentrations
Description: For morphological analysis, A2780 cancer cells (0.3 × 10^5 cells/well) were added to a 12-well plate in RPMI medium. After 24 h, different concentrations of complexes 1 and 2 were introduced into the cells. Possible morphological changes were evaluated at 0 and 48 h using an inverted optical microscope (NIKON ECLIPSE TS100) coupled with a Motcam 1SP camera, with a 10× objective lens.
Additionally, 1.5 × 10^4 A2780 cells/well were plated in 96-well plates in RPMI medium for the fluorescence morphology experiments. After treatment for 48 h, 100 μL (1 μg mL^–1) of the fluorescent marker PI ([…]) was added. For the morphological assessment using the fluorescent markers DAPI (4′,6-diamidino-2-phenylindole dilactate) and Green Plasma (CellMask), the cells were fixed in methanol and 80 μL (1 μg mL^–1) portions of the markers were added. Images were taken using a CELENA microscope (Logos Biosystems).

A2780 cells = assay: Cellular uptake of ruthenium by HR-CS GFAAS; type: cell-based, human; settings: 1 μM complex, 4 h
Description: Due to the higher cytotoxicity of complexes 1 and 2 against the A2780 cell line, experiments were performed to evaluate their cell internalization capacity. These studies are crucial to determine whether the complexes can efficiently penetrate the cell membrane and to correlate their antiproliferative effects with their uptake levels.[59] A2780 cells were exposed to complexes 1 and 2 (1 μM) over a period of 4 h, and the cellular uptake of ruthenium was quantified using graphite furnace atomic absorption spectrometry.
A2780 cancer cells (2 × 10^6 cells/plate) were seeded in Petri dishes. After 24 h, complexes 1 and 2 (1 μM) were added to the cells for 4 h. Subsequently, the RPMI medium was removed, and the cells were washed with phosphate-buffered saline (PBS), trypsinized, and counted. The ruthenium absorbance measurements were conducted with an Analytik Jena ContrAA 700 graphite furnace atomic absorption spectrometer (Jena, Germany), equipped with solid sampling tubes. The absorbance measurements were performed at 349.8945 nm, with the peak volume selected absorbance (PVSA) corresponding to three pixels. The heating program for the graphite furnace, used for the quantitative determination of ruthenium, is depicted in Table S4.[66] The analytical working solution of 50 mg L^–1 Ru was prepared by diluting standard solutions of 1000 mg L^–1 Ru (Specsol, São Paulo, Brazil) and acidifying with 0.5% (v/v) HNO3. To establish the calibration curve, appropriate aliquots of the analytical working solution were added to the atomizer to achieve concentrations of 0.1, 0.3, 0.6, 0.9, 1.2, and 1.5 ng of ruthenium. The cell suspension containing the internalized complexes was diluted with 500 μL of deionized water, acidified with 0.5% (v/v) HNO3, and homogenized using a vortex mixer (IKA model V1). For the determination of Ru by SS HR-CS GFAAS, 10 μL aliquots of the samples were transferred to the platform and introduced automatically into the graphite furnace, in which all measurements were carried out in triplicate.

[6] = test system: MRC-5 (lung) normal cells; assay: MTT cytotoxicity assay, MRC-5; settings: read-out: In Vitro Cytotoxicity IC50, MRC-5; MTT, 48 h treatment
Description: as §1, §2

A2780 cancer cells = assay: Clonogenic survival assay; type: cell-based, human; settings: 0.5 × IC50, 48 h treatment then 7 days
Description: The A2780 cancer cells were used for the clonogenic assay, in which a total of 400 cells/well were seeded in a six-well plate in RPMI medium, and after incubation for 24 h, different concentrations of complexes 1 and 2 were added. The plates containing the complexes were incubated (37 °C and 5% of CO2) for 48 h. The culture medium was replaced with fresh medium, and the system was incubated again for 7 days under the same condition. Thereafter, all culture media were removed from the plate, and the cells were washed with PBS and fixed with a 3:1 methanol/acetic acid mixture. Then the cells were colored with a 0.5% crystal violet solution in water for 30 min. Images were taken, and the colonies counted using ImageJ. The experiment was also carried out in triplicate.

Stability by 31P{1H} NMR = settings: 48 h
Description: Furthermore, the stability of the complexes was studied via ^31P{^1H} NMR in DMSO and a DMSO/DMEM (Dulbecco’s modified Eagle’s medium) solution over 48 h. […] In the same way, stability assays were performed for the precursor cis-[RuCl2(bipy)(dppp)].

A2780 tumor spheroids = assay: 3D tumor spheroids; type: cell-based, human
Description: In this experiment, the spheroids were monitored for 144 h after treatment with 1 at several concentrations (0.78–12.5 μM). […] As observed, at this concentration there is a decrease in the diameter, followed by stabilization, after treatment for 48 h. […] These findings underscore the necessity to refine in vitro methodologies to better elucidate the potential of novel compounds. Such improvements are crucial for increasing the likelihood of identifying critical insights early in the drug discovery and development process, thereby minimizing errors in subsequent stages. After treatment for 144 h, double staining with both DAPI and PI was performed.
In a 96-well Bioprint Kit [Magnetic 3D Cell Culture Technology (m3D)], the 3D culture experiment was carried out. Initially, to the A2780 cells was added 150 μL of a solution containing nanoparticles (NanoShuttle - PL). The A2780 cells were added to a 96-well repellent culture plate after 24 h. The resulting 1500 cells/well were placed under magnetic drives to form spheroids through the magnetic forces of the magnets. […] The formation of spheroids and their growth were monitored by a Digital Imaging System microscope (CELENA S, Logos Biosystems). Once the spheroids were formed, complex 1 at different concentrations (0.78, 1.56, 3.12, 6.25, and 12.5 μM) was added, and the effect of the compound on the spheroids was monitored for 144 h. […]

| Compound | IC50 ([1]; Homo sapiens, MDA-MB-231, 48 h) | IC50 ([2]; Homo sapiens, A2780cis, 48 h) | IC50 ([3]; Homo sapiens, A2780, 48 h) | IC50 (A549 (lung) cancer cells; Homo sapiens, A549, 48 h) | IC50 ([1]; MTT, 48 h treatment) | IC50 ([2]; MTT, 48 h treatment) | IC50 ([3]; MTT, 48 h treatment) | IC50 [6] | IC50 (A549 (lung) cancer cells; MTT, 48 h treatment) | other results |
| --- | --- | --- | --- | --- | --- | --- | --- | --- | --- | --- |
| c1ccc(-c2ccccn2)nc1 [Bipy, 2,2′-bipyridine] | > 100 µM | > 100 µM | > 100 µM | > 100 µM |  |  |  |  |  | IC50 at 48 h ([4]; MRC-5 normal lung cells): > 100 µM |
| O=C(O)c1ccccc1Nc1ccccc1 [HFe, fenamic acid] | > 100 µM | > 100 µM | > 100 µM | > 100 µM |  |  |  |  |  | IC50 at 48 h [4]: > 100 µM |
| c1ccc(P(CCCP(c2ccccc2)c2ccccc2)c2ccccc2)cc1 [Dppp, 1,3-bis(diphenylphosphino)propane] | > 100 µM | > 100 µM | > 100 µM | > 100 µM |  |  |  |  |  | IC50 at 48 h (in vitro): > 100 µM |
| Cc1cccc(Nc2ccccc2C2=[O+][Ru-4]34([O]2)([n+]2ccccc2-c2cccc[n+]23)[P+](c2ccccc2)(c2ccccc2)CCC[P+]4(c2ccccc2)c2ccccc2)c1C.F[P-](F)(F)(F)(F)F [complex 2, [Ru(MFen)(bipy)(dppp)]PF6] |  |  |  |  | 3.99 ± 0.21 µM | 1.11 ± 0.06 µM | 0.91 ± 0.06 µM | 2.33 ± 0.04 µM | 4.57 ± 0.08 µM | DAPI and Green Plasma staining [5]: significant shortening of the plasma membrane, while the nucleus remained intact; propidium iodide fluorescence intensity [5]: significant increase in fluorescence intensity; cell morphology [5]: loss of adhesion and round cells are observed; Ru uptake percentage (A2780 cells): 4,5%; amount of ruthenium internalized by A2780 cells (A2780 cells): 26,0 ± 1,9 ng; effect on colony formation (A2780 cancer cells): significantly reduced both the number and size of colonies |
| Cc1c(Cl)cccc1Nc1ccccc1C(=O)O [HMTFe, tolfenamic acid] | > 100 µM | > 100 µM | > 100 µM | > 100 µM |  |  |  |  |  | IC50 at 48 h [4]: > 100 µM |
| [Cl][Ru-4]12([Cl])([n+]3ccccc3-c3cccc[n+]31)[P+](c1ccccc1)(c1ccccc1)CCC[P+]2(c1ccccc1)c1ccccc1 [[RuCl2(bipy)(dppp)], cis-[RuCl2(bipy)(dppp)]] |  |  |  |  | 26.1 ± 4.84 µM | 35.6 ± 1.7 µM | 28 ± 0.81 µM | 40.9 ± 1.76 µM | > 50 µM | stability in DMSO (Stability by 31P{1H} NMR): new signals are observed at ∼40 ppm; stability in DMSO/DMEM solution (Stability by 31P{1H} NMR): two other doublets with chemical shifts at ∼33 and ∼46 ppm |
| Cc1c(Cl)cccc1Nc1ccccc1C1=[O+][Ru-4]23([O]1)([n+]1ccccc1-c1cccc[n+]12)[P+](c1ccccc1)(c1ccccc1)CCC[P+]3(c1ccccc1)c1ccccc1.F[P-](F)(F)(F)(F)F [complex 3, [Ru(TFen)(bipy)(dppp)]PF6] |  |  |  |  | 3.71 ± 0.15 µM | 2.68 ± 0.26 µM | 2.25 ± 0.08 µM | 3.58 ± 0.02 µM | 8.74 ± 0.23 µM |  |
| O=C(O)c1ccccc1Nc1cccc(C(F)(F)F)c1 [HMFFe, flufenamic acid] | > 100 µM | > 100 µM | > 100 µM | > 100 µM |  |  |  |  |  | IC50 at 48 h (in vitro): > 100 µM |
| Cc1cccc(Nc2ccccc2C(=O)O)c1C [HMFe, mefenamic acid] | > 100 µM | > 100 µM | > 100 µM | > 100 µM |  |  |  |  |  | IC50 at 48 h [4]: > 100 µM |
| F[P-](F)(F)(F)(F)F.c1ccc(Nc2ccccc2C2=[O+][Ru-4]34([O]2)([n+]2ccccc2-c2cccc[n+]23)[P+](c2ccccc2)(c2ccccc2)CCC[P+]4(c2ccccc2)c2ccccc2)cc1 [complex 1, [Ru(Fen)(bipy)(dppp)]PF6] |  |  |  |  | 2.87 ± 0.11 µM | 0.96 ± 0.04 µM | 0.66 ± 0.04 µM | 2.47 ± 0.18 µM | 3.96 ± 0.4 µM | DAPI and Green Plasma staining [5]: significant shortening of the plasma membrane, while the nucleus remained intact; propidium iodide fluorescence intensity [5]: significant increase in fluorescence intensity; cell morphology [5]: loss of adhesion and round cells are observed; concentration at which spheroid growth (diameter) was significantly compromised (A2780 tumor spheroids; 0.78–12.5 μM tested, monitored 144 h): 12.5 µM; PI fluorescence in spheroids (A2780 tumor spheroids; DAPI/PI double staining after 144 h): increase in the fluorescence intensity of the PI marker; Ru uptake percentage (A2780 cells): 3,6%; amount of ruthenium internalized by A2780 cells (A2780 cells): 20,8 ± 3,2 ng; effect on colony formation (A2780 cancer cells): significantly reduced both the number and size of colonies |
| FC(F)(F)c1cccc(Nc2ccccc2C2=[O+][Ru-4]34([O]2)([n+]2ccccc2-c2cccc[n+]23)[P+](c2ccccc2)(c2ccccc2)CCC[P+]4(c2ccccc2)c2ccccc2)c1.F[P-](F)(F)(F)(F)F [complex 4, [Ru(FFen)(bipy)(dppp)]PF6] |  |  |  |  | 2.34 ± 0.14 µM | 4.25 ± 0.11 µM | 2.14 ± 0.11 µM | 4.36 ± 0.19 µM | 6.87 ± 0.35 µM |  |

— article PMC11884657, “Ru(II)-Fenamic-Based Complexes as Promising Human Ovarian Antitumor Agents: DNA Interaction, Cellular Uptake, and Three-Dimensional Spheroid Models” (Inorganic Chemistry, 2025)
